According to ChEMBL document CHEMBL1201862, “PubChem BioAssay data set” (2004):
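Compound exposure: 48 hours, 5 concentrations, 96-well plates. At the GI50, growth is halved.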 Calls of active or inactive are those of the source. Rule as the data show it: active = GI50 up to about 1.1 µM and inactive = higher.

What was measured:
Assay in all cases: inhibition of tumour cell growth, NCI panel, 48 h
786-0 = tested on: 786-0
OVCAR-5 = tested on: OVCAR-5
RPMI-8226 = tested on: RPMI-8226
NCI/ADR-RES = tested on: NCI/ADR-RES
T47D = tested on: T47D
DU-145 = tested on: DU-145
SF-539 = tested on: SF-539
A549 = tested on: A549
Hs-578T = tested on: Hs-578T
A498 = tested on: A498
UO-31 = tested on: UO-31
MDA-MB-435 = tested on: MDA-MB-435
HCC 2998 = tested on: HCC 2998
U-251 = tested on: U-251
RXF 393 = tested on: RXF 393
IGROV-1 = tested on: IGROV-1
HOP-62 = tested on: HOP-62
CAKI-1 = tested on: CAKI-1
UACC-62 = tested on: UACC-62
BT-549 = tested on: BT-549

Measured: GI50

CCOC(=O)C(Cl)(NC(=O)c1ccc(F)cc1)C(F)(F)F (stereo not drawn)
inactive: 786-0 > 100 µM | OVCAR-5 > 100 µM | RPMI-8226 > 100 µM | NCI/ADR-RES > 100 µM | T47D > 100 µM | DU-145 > 100 µM | SF-539 > 100 µM | A549 > 100 µM | Hs-578T > 100 µM | A498 > 100 µM | UO-31 > 100 µM | MDA-MB-435 > 100 µM | HCC 2998 > 100 µM | U-251 > 100 µM | RXF 393 > 100 µM | IGROV-1 > 100 µM | HOP-62 > 100 µM | CAKI-1 > 100 µM

COC(=O)C1=C(C(=O)OC)C(C(=O)c2ccccc2)N2N=C(c3ccc(Cl)cc3)C=CC12 (stereo not drawn)
inactive: 786-0 > 100 µM | OVCAR-5 > 100 µM | RPMI-8226 3.95 µM | NCI/ADR-RES 8.07 µM | T47D > 100 µM | DU-145 > 100 µM | SF-539 > 100 µM | UACC-62 23.9 µM | A549 31 µM | A498 > 100 µM | UO-31 > 100 µM | MDA-MB-435 9.44 µM | HCC 2998 > 100 µM | U-251 > 100 µM | BT-549 2.09 µM | RXF 393 4.15 µM | HOP-62 > 100 µM | CAKI-1 > 100 µM

NC(Cc1ccc(O)cn1)C(=O)O (stereo not drawn)
inactive: 786-0 > 100 µM | OVCAR-5 > 100 µM | RPMI-8226 > 100 µM | NCI/ADR-RES > 100 µM | DU-145 > 100 µM | SF-539 > 100 µM | A549 > 100 µM | Hs-578T 4.19 µM | A498 > 100 µM | UO-31 > 100 µM | MDA-MB-435 84.1 µM | HCC 2998 > 100 µM | U-251 35.2 µM | BT-549 > 100 µM | RXF 393 > 100 µM | IGROV-1 > 100 µM | HOP-62 > 100 µM | CAKI-1 > 100 µM

COc1cc(C(C[N+](=O)[O-])SC(C)=O)ccc1OCc1ccccc1 (stereo not drawn)
inactive: 786-0 1.79 µM | OVCAR-5 14.8 µM | RPMI-8226 1.39 µM | NCI/ADR-RES 12.2 µM | T47D 20.5 µM | DU-145 13.3 µM | SF-539 2.48 µM | UACC-62 3.09 µM | A549 9.33 µM | Hs-578T 3.31 µM | A498 7.57 µM | UO-31 4.57 µM | MDA-MB-435 3.08 µM | HCC 2998 8.45 µM | U-251 6.9 µM | RXF 393 1.69 µM | IGROV-1 2.88 µM | HOP-62 7.18 µM | CAKI-1 12 µM

O=c1cc(NNc2ccc3ccccc3c2)[nH]c(=S)[nH]1
inactive: 786-0 6.75 µM | OVCAR-5 > 100 µM | RPMI-8226 22.2 µM | NCI/ADR-RES > 100 µM | DU-145 > 100 µM | SF-539 30.3 µM | A549 > 100 µM | Hs-578T 25 µM | A498 > 100 µM | UO-31 > 100 µM | MDA-MB-435 23.4 µM | HCC 2998 24 µM | U-251 27 µM | BT-549 39.6 µM | IGROV-1 22.5 µM | HOP-62 27.4 µM

O=C(CN1CCCCC1)c1ccc2[nH]c(=O)oc2c1
inactive: 786-0 > 100 µM | OVCAR-5 > 100 µM | RPMI-8226 > 100 µM | NCI/ADR-RES > 100 µM | DU-145 > 100 µM | SF-539 > 100 µM | UACC-62 > 100 µM | Hs-578T > 100 µM | A498 > 100 µM | MDA-MB-435 > 100 µM | U-251 > 100 µM | BT-549 > 100 µM | RXF 393 > 100 µM | IGROV-1 > 100 µM | HOP-62 > 100 µM | CAKI-1 > 100 µM

CC(=O)/N=C1\N/C(=C\c2ccc(Cl)cc2)C(=O)N1/C=C1\C(=O)Oc2ccccc2C1=O
inactive: 786-0 > 100 µM | OVCAR-5 > 100 µM | RPMI-8226 > 100 µM | NCI/ADR-RES > 100 µM | T47D > 100 µM | DU-145 > 100 µM | SF-539 > 100 µM | UACC-62 26.3 µM | A549 > 100 µM | Hs-578T 1.4 µM | A498 10.8 µM | MDA-MB-435 51.2 µM | HCC 2998 > 100 µM | U-251 61.1 µM | RXF 393 > 100 µM | IGROV-1 > 100 µM | HOP-62 > 100 µM | CAKI-1 > 100 µM

NC(=O)CN1C=CCC(C(N)=O)=C1 [CARICOTAMIDE]
inactive: 786-0 > 100 µM | OVCAR-5 > 100 µM | RPMI-8226 > 100 µM | NCI/ADR-RES > 100 µM | T47D > 100 µM | DU-145 > 100 µM | SF-539 > 100 µM | UACC-62 > 100 µM | A549 > 100 µM | A498 > 100 µM | UO-31 > 100 µM | MDA-MB-435 > 100 µM | HCC 2998 > 100 µM | U-251 > 100 µM | BT-549 > 100 µM | RXF 393 > 100 µM | IGROV-1 > 100 µM | HOP-62 > 100 µM | CAKI-1 > 100 µM

CCOC(=O)NC(Nc1ncn(C(NC(=O)OCC)(C(F)(F)F)C(F)(F)F)n1)(C(F)(F)F)C(F)(F)F
inactive: 786-0 > 100 µM | OVCAR-5 > 100 µM | RPMI-8226 > 100 µM | NCI/ADR-RES > 100 µM | T47D 49 µM | DU-145 > 100 µM | SF-539 > 100 µM | UACC-62 > 100 µM | A549 > 100 µM | Hs-578T > 100 µM | A498 > 100 µM | UO-31 12.2 µM | MDA-MB-435 > 100 µM | HCC 2998 29.9 µM | U-251 > 100 µM | RXF 393 > 100 µM | IGROV-1 > 100 µM | HOP-62 > 100 µM | CAKI-1 > 100 µM

Cc1cc2c(nn1)CCc1c-2no[n+]1[O-]
inactive: 786-0 > 100 µM | OVCAR-5 > 100 µM | RPMI-8226 > 100 µM | NCI/ADR-RES > 100 µM | T47D > 100 µM | SF-539 > 100 µM | UACC-62 > 100 µM | A549 > 100 µM | Hs-578T > 100 µM | UO-31 > 100 µM | MDA-MB-435 > 100 µM | HCC 2998 > 100 µM | U-251 > 100 µM | BT-549 > 100 µM | RXF 393 22.1 µM | IGROV-1 > 100 µM | HOP-62 > 100 µM | CAKI-1 > 100 µM

O=[N+]([O-])c1ccc2[nH]nc(OCc3ccccc3Cl)c2c1
inactive: 786-0 25 µM | OVCAR-5 52.6 µM | RPMI-8226 > 100 µM | NCI/ADR-RES 25 µM | T47D 15 µM | DU-145 50.7 µM | SF-539 22.4 µM | UACC-62 29.2 µM | A549 39.4 µM | Hs-578T 42.3 µM | A498 37.5 µM | UO-31 > 10 µM | MDA-MB-435 > 100 µM | HCC 2998 59.6 µM | U-251 28.3 µM | RXF 393 18.2 µM | IGROV-1 91.2 µM | HOP-62 37.8 µM | CAKI-1 50.4 µM
